Test results reported in PMC11726677, “Eradication of Therapy-Resistant Cancer Stem Cells by Novel Telmisartan Derivatives” (Journal of Medicinal Chemistry, 2024).
“And” between values parts separate entries of the source, which are not always exact repeats. Equal entries are not always repeated. Marks after values point to notes of the source that are not given here. Each block holds one compound with its values, some of them ahead of it.

Legend:
[1] = Caco2 permeability (bidirectional); type: in vitro ADME; conditions: human, Caco-2; Papp B–A/Papp A–B
Description: The medium was changed regularly and on day 20 the permeability study was performed. The monolayers were prepared by rinsing the apical and basolateral surfaces with Hanks Balanced Salt Solution (HBSS) twice at the desired pH and by incubating for 40 min to stabilize the physiological parameters. […] The compounds were diluted with buffer to a concentration of 10 μM (final DMSO concentration ≤1%) and added to the apical or basolateral sides of the cell monolayer. Compound permeability was assessed in duplicates and molecules of known permeability characteristics were used as controls (antipyrine, atenolol, talinolol, and estrone 3-sulfate). To calculate Papp, compound appearance was measured using LC–MS/MS. The efflux ratio was determined for bidirectional assays.

STAT5 = experiment: Jess Simple Western immunoassay of STAT5/pSTAT5 in IGROV-1 SP cells; type: cell-based, human; conditions: IGROV-1 SP, 10 μM, 72 h
Description: The impact of STAT5 activation on the mode of action was investigated in selected solid tumor cell lines as well.
Protein extracts were prepared as previously described.[44] Protein expression was determined using the capillary-based Jess Simple Western detection system (ProteinSimple, BioTechne) according to the manufacturer’s instructions at default settings. […] Horseradish peroxidase (HRP)-conjugated secondary antirabbit antibody, which was included in the Jess Detection Module kit, was used. Data analysis was conducted using Compass for Simple Western 4.0 software (ProteinSimple, BioTechne).

IGROV-1 SP cells = experiment: Chemosensitizing to paclitaxel: metabolic activity of IGROV-1 SP cells (MTT); type: cell-based, human; conditions: compound 10 μM + PTX 10 nM, 72 h
Description: The chemosensitizing efficacy was investigated in the ovarian and prostate cancer cell lines using the above-described metabolic activity assay. Paclitaxel (PTX) served as a reference (CTR) in A2780 V SP and IGROV-1 SP cells and docetaxel (DTX) in PC3-DR and D145-DR cells.
COS-7 (2 × 10^3 cells per well), IGROV-1 SP (2.5 × 10^3 cells per well), A2780 V SP (1.5 × 10^3 cells per well), PC3-DR (4 × 10^3 cells per well), and DU145-DR (3 × 10^3 cells per well) cells were seeded in 96-well plates in triplicates and after 24 h, the compounds were added at the respective concentrations. K562-R and K562 cells (2 × 10^4 cells per well), were treated with the compounds 2 h after seeding. […] A modified MTT colorimetric assay (EZ4U kit, Biomedica) was used to determine the metabolic activity of the tested cells, according to the manufacturer’s instructions. Absorbance was measured and the optical density of the respective FCS-containing medium and of the substrate was subtracted to exclude nonspecific staining. Metabolic activity in the absence of the compounds (CTR, DMSO) was set to 100% as reference.

[2] = tested on: human CML K562-R xenograft; experiment: Efficacy in human CML K562-R xenograft model; type: in vivo, female NOD/SCID mice; parameters: % T/C (treatment/control) / % TGI (tumor growth inhibition): concentration or dose not given beside the values; conditions: for Tumor Volume, individual animal / Tumor Volume, group mean: PO QD x 30 days (imatinib 50 mg/kg, 7c 10 mg/kg); for % T/C (treatment/control): mean tumor volume treated vs control; for % TGI (tumor growth inhibition): vs vehicle control
Description: The animals were checked daily for humane end points. Body weight was measured and recorded daily after dosing.
The % T/C value, defined as the ratio of the mean tumor volume for the treated versus control group, was calculated as % T/C = (Tn/Cn) × 100%; whereas Tn: denotes mean tumor volume of the treated group on day n, and Cn: denotes mean tumor volume of the control group on day n. The optimal value is the minimal % T/C ratio, which reflects the maximal tumor growth inhibition achieved.
TGI (Tumor growth inhibition) was calculated by the following formula [drawing 1] [drawing 2]
Whereas: Tn: denotes the mean tumor volume of the treated group on day n; T1: denotes the mean tumor volume of the treated group on day 1; Cn: denotes the mean tumor volume of the vehicle control group on day n; and C1: denotes the mean tumor volume of the vehicle control group at day 1.

[3] = Body weight / tolerability in the K562-R xenograft study; conditions: for Body Weight, individual animal / Body Weight, group mean: PO QD x 30 days (imatinib 50 mg/kg, 7c 10 mg/kg); for Body Weight, individual animal: animals No. 1–7; for Body Weight, group mean: n = 7

- efflux ratio at 10 µM [1]: 1.24
Structure (SMILES): CCCc1nc2c(C)cc(-c3nc4ccccc4n3C)cc2n1Cc1ccc(-c2ccccc2C(=O)OC)cc1 [7b, Methyl 4′-((1,7′-dimethyl-2′-propyl-1H,3′H-[2,5′-bibenzo[d]imidazole]-3′-yl)methyl)-[1,1′-biphenyl]-2-carboxylate]
- phosphorylation status of STAT5 (STAT5): practically did not suppress pSTAT5
- viability / antimetabolic effect in combination with PTX (IGROV-1 SP cells): inactive

Structure (SMILES): CCCc1nc2c(C)cc(-c3nc4ccccc4n3C)cc2n1Cc1ccc(-c2ccccc2C(N)=O)cc1 [7c, 4′-((1,7′-Dimethyl-2′-propyl-1H,3′H-[2,5′-bibenzo[d]imidazole]-3′-yl)methyl)-[1,1′-biphenyl]-2-carboxamide]
- Tumor Volume, individual animal ([2]; Day 1, animals No. 1–7): 171 mm3 and 163 mm3 and 155 mm3 and 149 mm3 and 140 mm3 and 136 mm3 and 124 mm3
- Tumor Volume, group mean ([2]; Day 1, n = 7): 148 mm3
- Tumor Volume, individual animal ([2]; Day 5, animals No. 1–7): 197 mm3 and 204 mm3 and 162 mm3 and 148 mm3 and 149 mm3 and 187 mm3 and 130 mm3
- Tumor Volume, group mean ([2]; Day 5, n = 7): 168 mm3
- % T/C (treatment/control) ([2]; Day 5): 90%
- % TGI (tumor growth inhibition) ([2]; Day 5): 46%
- Tumor Volume, individual animal ([2]; Day 8, animals No. 1–7): 202 mm3 and 360 mm3 and 167 mm3 and 154 mm3 and 155 mm3 and 464 mm3 and 133 mm3
- Tumor Volume, group mean ([2]; Day 8, n = 7): 234 mm3
- % T/C (treatment/control) ([2]; Day 8): 96%
- % TGI (tumor growth inhibition) ([2]; Day 8): 9%
- Tumor Volume, individual animal ([2]; Day 12, animals No. 1–7): 213 mm3 and 711 mm3 and 201 mm3 and 158 mm3 and 164 mm3 and 949 mm3 and 143 mm3
- Tumor Volume, group mean ([2]; Day 12, n = 7): 363 mm3
- % T/C (treatment/control) ([2]; Day 12): 88%
- % TGI (tumor growth inhibition) ([2]; Day 12): 18%
- Tumor Volume, individual animal ([2]; Day 15, animals No. 1–7): 216 mm3 and 991 mm3 and 317 mm3 and 165 mm3 and 168 mm3 and 1349 mm3 and 143 mm3
- Tumor Volume, group mean ([2]; Day 15, n = 7): 478 mm3
- % T/C (treatment/control) ([2]; Day 15): 75%
- % TGI (tumor growth inhibition) ([2]; Day 15): 32%
- Tumor Volume, individual animal ([2]; Day 19, animals No. 1–7): 207 mm3 and 1716 mm3 and 521 mm3 and 192 mm3 and 174 mm3 and 1858 mm3 and 148 mm3
- Tumor Volume, group mean ([2]; Day 19, n = 7): 688 mm3
- % T/C (treatment/control) ([2]; Day 19): 84%
- % TGI (tumor growth inhibition) ([2]; Day 19): 20%
- Tumor Volume, individual animal ([2]; Day 22, animals No. 1–7): 181 mm3 and 2448 mm3 and 891 mm3 and 198 mm3 and 180 mm3 and 2149 mm3 and 149 mm3
- Tumor Volume, group mean ([2]; Day 22, n = 7): 885 mm3
- % T/C (treatment/control) ([2]; Day 22): 79%
- % TGI (tumor growth inhibition) ([2]; Day 22): 24%
- Tumor Volume, individual animal ([2]; Day 26, animals No. 1–7): 181 mm3 and 2912 mm3 and 1522 mm3 and 206 mm3 and 188 mm3 and 2607 mm3 and 156 mm3
- Tumor Volume, group mean ([2]; Day 26, n = 7): 1110 mm3
- % T/C (treatment/control) ([2]; Day 26): 69%
- % TGI (tumor growth inhibition) ([2]; Day 26): 34%
- Tumor Volume, individual animal ([2]; Day 29, animals No. 1–7): 184 mm3 and 3497 mm3 and 1803 mm3 and 214 mm3 and 196 mm3 and 2946 mm3 and 163 mm3
- Tumor Volume, group mean ([2]; Day 29, n = 7): 1286 mm3
- % T/C (treatment/control) ([2]; Day 29): 65%
- % TGI (tumor growth inhibition) ([2]; Day 29): 38%
- Tumor Volume, individual animal ([2]; Day 33, animals No. 1–7): 200 mm3 and 4707 mm3 and 2923 mm3 and 214 mm3 and 196 mm3 and 3520 mm3 and 172 mm3
- Tumor Volume, group mean ([2]; Day 33, n = 7): 1705* mm3
- % T/C (treatment/control) ([2]; Day 33): 63%
- % TGI (tumor growth inhibition) ([2]; Day 33): 39%
- Tumor Weight, individual animal ([2]; harvested on day 33, animals No. 1–7): 0.078 g and 3.807 g and 2.646 g and 0.268 g and 0.057 g and 4.319 g and 0.060 g
- Tumor Weight, group mean ([2]; harvested on day 33, n = 7): 1.600 g
- tolerability ([3]; 7c 10 mg/kg, imatinib 50 mg/kg, PO QD × 30 days): well tolerated
- Body Weight, individual animal ([3]; Day 1): 23 g and 25 g and 26 g and 21 g
- Body Weight, group mean ([3]; Day 1): 24.1 g
- Body Weight, individual animal ([3]; Day 5): 23 g and 24 g and 25 g and 26 g and 21 g
- Body Weight, individual animal ([3]; Day 8): 23 g and 22 g and 26 g and 28 g and 24 g
- Body Weight, group mean ([3]; Day 8): 24.0 g
- Body Weight, individual animal ([3]; Day 12): 23 g and 22 g and 25 g and 27 g and 24 g
- Body Weight, individual animal ([3]; Day 15): 23 g and 22 g and 25 g and 27 g and 21 g
- Body Weight, group mean ([3]; Day 15): 23.4 g
- Body Weight, individual animal ([3]; Day 19): 23 g and 25 g and 22 g and 28 g
- Body Weight, individual animal ([3]; Day 22): 24 g and 25 g and 23 g and 27 g and 22 g
- Body Weight, group mean ([3]; Day 22): 24.1 g
- Body Weight, individual animal ([3]; Day 26): 25 g and 26 g and 22 g and 27 g and 23 g
- Body Weight, individual animal ([3]; Day 29): 23 g and 26 g and 21 g and 28 g and 24 g and 22 g
- Body Weight, individual animal ([3]; Day 33): 24 g and 27 g and 22 g and 26 g and 28 g and 23 g
- Body Weight, group mean ([3]; Day 33): 25.1 g
